In brackets after ≈: the same amount, converted by molar mass.
How the values were obtained:
[1] = test system: E. coli ΔtolC (JW5503); assay type: cell-based; conditions: efflux deficient E. coli ΔtolC
Method: (§1) The compounds synthesized, shown in Table 1, were evaluated against Gram-positive and Gram-negative reference strains (S. aureus 29213 and E. coli MG1655, respectively), as well as an efflux deficient E. coli strain (ΔtolC, JW5503).
(§2) Bacterial strains. S. aureus ATCC 29213, E. coli MG1655, E. coli BAA-2340, E. coli BAA-2469, E. coli BAA-2471, E. cloacae BAA-2341, E. cloacae BAA-2468, K. pneumoniae BAA-1705, K. pneumoniae BAA-2342, K. pneumoniae BAA-2470, K. pneumoniae BAA-2472, and K. pneumoniae BAA-2473 were obtained from ATCC. E. coli JW5503 and E. coli JW3596 were obtained from the KEIO Collection. E. cloacae ATCC 29893 was provided by W. van der Donk (UIUC). E. coli AR-0346, E. coli AR-0349, E. coli AR-0493, E. coli AR-0495, and K. pneumoniae AR-0347 were obtained from the CDC and FDA AR Isolate Bank. E. coli F20987, E. coli M66623, E. cloacae S28901.1, K. pneumoniae M14723, K. pneumoniae M67198, K. pneumoniae M67297, K. pneumoniae S20595, K. pneumoniae S47889, A. baumannii W41979, A. baumannii F19521, A. baumannii M13100, and A. baumannii WO22 were obtained from the University of Illinois Chicago Medical School. A. baumannii KB304, A. baumannii KB343, and A. baumannii KB357 were provided by J. Quale.
(§3) Antimicrobial susceptibility tests. Susceptibility testing was performed in biological triplicate, using the micro-dilution broth method as outlined by the Clinical and Laboratory Standards Institute. Bacteria were cultured with cation-adjusted Muller-Hinton broth (Sigma-Aldrich, Cat# 90922) in round-bottom 96-well plates (Corning, Cat# 3788). Human serum (pooled gender, 0.2 μm filtered) was purchased from BioIVT (Hicksville, NY).

[2] = test system: E. coli MG1655; assay: Antimicrobial susceptibility test (MIC); assay type: cell-based
From the text: as §2, §3

[3] = test system: IMR90; assay: Toxicity screen against mammalian cell lines (72 h), Alamar Blue; assay type: cell-based
Method: Cell culture. IMR90 cells were obtained from ATCC. IMR90 cells were grown in EMEM with 10% fetal bovine serum (Gemini Benchmark, Cat# 100-106), 100 U/mL penicillin, and 100 μg/mL streptomycin. All cells were cultured at 37° C. in a 5% CO2 environment. Media was prepared by the Univeristy of Illinois School of Chemical Sciences Cell Media Facility. Sex and age of cell lines: IMR90 ([…]).
Cell viability. Cells seeded (IMR90: 5,000 cells/well) a 96-well plate (Greiner Bio-One, Cat# 655180) and were allowed to attach overnight. […] Raptinal (100 μM) was used as a dead control. After 24 h post-treatment, media was exchanged with compound-free media. […] Stock Alamar Blue solution [10 μL, 440 μM resazurin (Sigma-Aldrich, Cat# R7017) in sterile 1×PBS] was added to each well, and plate was incubated […]. Conversion of Alamar Blue was measured with plate reader (SpectraMax M3, Molecular Devices) by fluorescence (ex 555 nm, em 585 nm, cutoff 570 nm, autogain). Percent death was determined by normalizing to DMSO-treated cells and raptinal-treated cells.

[4] = test system: Hep G2; assay: Toxicity screen against mammalian cell lines (72 h); assay type: cell-based
[5] = test system: K. pneumoniae BAA 2472; assay: microbe, parasite or virus in culture; assay type: cell-based; conditions: for MIC K. pneumoniae BAA 2472: clinical isolate
Method: as §1, §2, §3

[6] = test system: K. pneumoniae AR 0113; assay: microbe, parasite or virus in culture; assay type: cell-based; conditions: for MIC K. pneumoniae AR 0113: clinical isolate
Method: as §3

[7] = test system: E. coli AR 0085; assay: microbe, parasite or virus in culture; assay type: cell-based; conditions: for MIC E. coli AR 0085: clinical isolate
Method: as §3

[8] = test system: K. pneumoniae AR 0066; assay: microbe, parasite or virus in culture; assay type: cell-based; conditions: for MIC K. pneumoniae AR 0066: clinical isolate
Method: as §3

[9] = test system: A. baumannii AR 0033; assay: microbe, parasite or virus in culture; assay type: cell-based; conditions: for MIC A. baumannii AR 0033: clinical isolate
Method: as §3

[10] = test system: A. baumannii AR 0313; assay: microbe, parasite or virus in culture; assay type: cell-based; conditions: for MIC A. baumannii AR 0313: clinical isolate
Method: as §3

[11] = test system: K. pneumoniae AR 0560; assay: microbe, parasite or virus in culture; assay type: cell-based; conditions: for MIC K. pneumoniae AR 0560: clinical isolate
Method: as §3

[12] = test system: E. coli AR 0048; assay: microbe, parasite or virus in culture; assay type: cell-based; conditions: for MIC E. coli AR 0048: clinical isolate
Method: as §3

[13] = test system: A. baumannii AR 0273; assay: microbe, parasite or virus in culture; assay type: cell-based; conditions: for MIC A. baumannii AR 0273: clinical isolate
Method: as §3

[14] = test system: A. baumannii AR 0299; assay: microbe, parasite or virus in culture; assay type: cell-based; conditions: for MIC A. baumannii AR 0299: clinical isolate
Method: as §3

[15] = test system: S. aureus ATCC 29213; assay: Antimicrobial susceptibility test (MIC), micro-dilution broth; assay type: cell-based; conditions: S. aureus ATCC 29213
From the text: as §2, §3

[16] = Maximal tolerated dose (MTD) in mice
Method: Mouse MTD of Debio-1452-NH3. The protocol was approved by the IACUC at the University of Illinois at Urbana-Champaign (Protocol Number:16144). In these studies, 10- to 12-week-old female C57BL/6 mice purchased from Charles River were used. The maximum tolerate dose (MTD) of single compound was determined first. Debio-1452 amine analogues were formulated in 20% sulfobutyl ether β-cyclodextrin in sterile water. Debio-1452-NH3 (1), and compounds 2 and 3 were given by IP injection and mice were monitored for signs of toxicity for 2 weeks (single dose). For multiple dose, the compound was given by daily IP for 5 consecutive days and mice were monitored for signs of toxicity for 1 month. MTD was the highest dosage with acceptable toxicity (e.g. <20% weight loss). Single dose MTDs were initially determined. […] The MTD of Debio-1452-NH3 (1) was used to inform the dosing schedule used in subsequent efficacy studies.

[17] = target: A. baumannii FabI (Acinetobacter baumannii, UniProt D0CAD5); assay: biochemical; conditions: purified FabI, apparent inhibition constant; read-out: A. baumannii FabI Ki^app
Sequence of A. baumannii FabI (D0CAD5 1-288): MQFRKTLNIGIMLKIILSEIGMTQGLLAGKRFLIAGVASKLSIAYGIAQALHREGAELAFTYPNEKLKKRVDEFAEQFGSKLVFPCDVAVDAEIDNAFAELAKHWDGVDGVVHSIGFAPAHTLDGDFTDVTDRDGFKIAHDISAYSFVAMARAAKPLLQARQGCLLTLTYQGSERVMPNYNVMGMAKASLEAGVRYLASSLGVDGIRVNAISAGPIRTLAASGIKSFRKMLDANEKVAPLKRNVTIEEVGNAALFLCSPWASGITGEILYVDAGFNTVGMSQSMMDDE
Method: Mode of Action. To probe the effects of varying ring systems and amine placement on FabI target engagement, the apparent inhibition constants (Ki^app) for select compounds were determined using purified FabI. The goal of these studies was two-fold, to comparatively assess fabimycin, Debio-1452-NH3, and Debio-1452, and to also assess differential activity against the E. coli and A. baumannii versions of FabI. FabI from E. coli and A. baumannii were recombinantly expressed and purified, and the ability for each compound to inhibit the activity of these enzymes was evaluated using a standard FabI enzyme assay.
In vitro FabI inhibition assay. NADH (Sigma-Aldrich, Cat# N8129) and crotonoyl-CoA (Sigma-Aldrich, Cat# 28007) were both diluted into activity buffer [100 mM potassium glutamate (pH 7.8)], and working solution was dispensed into two columns of round-bottom 96-well plate (330 μL per well). Inhibitors, dissolved in DMSO at 200× final concentration, were added to each well via multichannel pipette (2.48 μL per well). After thorough mixing, this mixture was transferred to UV-transparent plate (UV-STAR half-area 96-well plate, Greiner Bio-One, Cat#675801, 100 μL per well, three technical replicates per inhibitor concentration). Plate was placed in plate-reader (SpectraMax 190, Molecular Devices) under temperature control (25° C.), and temperature was allowed to equilibrate. Fresh aliquot of enzyme from −80° C. was thawed on ice and diluted in activity buffer. Enzyme working solution was added to plate (50 μL per well, 20 nM enzyme final). After shaking for 5 s, reaction progress was monitored by absorbance at 340 nm every 15 s for 90 min. Linear portion of reaction progress curve was fit using plate-reader software (SoftMax Pro 7.0). Percent activity was calculated relative to DMSO-only and no-enzyme controls in each plate. Percent activity curves were fit to Morrison's quadratic using Graphpad Prism 6.0 to obtain apparent Ki.

[18] = test system: two E. coli, four K. pneumoneia, and four A. baumannii strains; assay: MIC against Gram-negative clinical isolate challenge panel (ten isolates); assay type: cell-based
Method: as §1, §3

[19] = female, C57BL/6, mouse, in vivo

Molecule: Cc1c(CN(C)C(=O)/C=C/c2cnc3c(c2)CC(N)C(=O)N3)oc2ccccc12.Cl (stereo not drawn) [Debio-1452-NH3, (E)-3-(6-amino-7-oxo-5,6,7,8-tetrahydro-1,8-naphthyridin-3-yl)-N-methyl-N-((3-methylbenzofuran-2-yl)methyl)acrylamide, reference compound]
- MIC E. coli ΔtolC [1]: 0.062 µg/mL
- MIC ([2]; Escherichia coli, MG1655): 4 µg/mL
- IMR90 % Cell Death ([3]; 30 μM): 18 ± 4%
- IMR90 % Cell Death ([3]; 100 μM): 69 ± 5%
- Hep G2 % Cell Death ([4]; 30 μM): 29 ± 8%
- Hep G2 % Cell Death ([4]; 100 μM): 77 ± 3%
- MIC ([5]; Klebsiella pneumoniae, BAA2472, read-out: MIC K. pneumoniae BAA 2472, clinical isolate): 16 µg/mL
- MIC ([6]; Klebsiella pneumoniae, AR0113, read-out: MIC K. pneumoniae AR 0113, clinical isolate): 32 µg/mL
- MIC ([7]; Escherichia coli, AR0085, read-out: MIC E. coli AR 0085, clinical isolate): 16 µg/mL
- MIC ([8]; Klebsiella pneumoniae, AR0066, read-out: MIC K. pneumoniae AR 0066, clinical isolate): 32 µg/mL
- MIC ([9]; Acinetobacter baumannii, AR0033, read-out: MIC A. baumannii AR 0033, clinical isolate): 32 µg/mL
- MIC ([10]; Acinetobacter baumannii, AR0313, read-out: MIC A. baumannii AR 0313, clinical isolate): 32 µg/mL
- MIC ([11]; Klebsiella pneumoniae, AR0560, read-out: MIC K. pneumoniae AR 0560, clinical isolate): 32 µg/mL
- MIC ([12]; Escherichia coli, AR0048, read-out: MIC E. coli AR 0048, clinical isolate): 32 µg/mL
- MIC ([13]; Acinetobacter baumannii, AR0273, read-out: MIC A. baumannii AR 0273, clinical isolate): 32 µg/mL
- MIC ([14]; Acinetobacter baumannii, AR0299, read-out: MIC A. baumannii AR 0299, clinical isolate): 32 µg/mL
- MIC ([15]; Staphylococcus aureus, ATCC29213, read-out: MIC S. aureus 29213): 0.031 µg/mL
- well tolerated daily dosing for 5 consecutive days ([16]; daily IP, 5 consecutive days, female C57BL/6 mice): 50 mg/kg
- MTD at 2 weeks [16, 19]: 50 mg/kg
- MTD at 5 d [16, 19]: 50 mg/kg
- Multi-day single-dose MTD ([16]; female, C57BL/6, mouse, in vivo, 5 d): 50 mg/kg, 5 d
- MTD at 2 weeks ([16]; female, C57BL/6, mouse, in vivo, ip): 50 mg/kg

Molecule: (R,E)-3-(7-amino-8-oxo-6,7,8,9-tetrahydro-5H-pyrido[2,3]azepin-3-yl)-N-methyl-N-((3-methylbenzofuran-2-yl)methyl)acrylamide [(R)-11]
- MIC E. coli ΔtolC [1]: 0.5 µg/mL
- MIC E. coli MG1655 [2]: 64 µg/mL
- MIC K. pneumoniae BAA 2472 [5]: >128 µg/mL
- Ki [17]: 89 ± 11 nM
- MIC K. pneumoniae AR 0113 [6]: >128 µg/mL
- MIC E. coli AR 0085 [7]: 128 µg/mL
- MIC K. pneumoniae AR 0066 [8]: >128 µg/mL
- MIC A. baumannii AR 0033 [9]: >128 µg/mL
- MIC A. baumannii AR 0313 [10]: >128 µg/mL
- MIC K. pneumoniae AR 0560 [11]: >128 µg/mL
- MIC E. coli AR 0048 [12]: 128 µg/mL
- MIC A. baumannii AR 0273 [13]: >128 µg/mL
- MIC A. baumannii AR 0299 [14]: >128 µg/mL
- MIC S. aureus 29213 [15]: 0.125 µg/mL

Molecule: Cc1c(CN(C)C(=O)/C=C/c2cnc3c(c2)CCC(N)C(=O)N3)oc2ccccc12 (racemic) [(±)-11]
- MIC E. coli ΔtolC [1]: 0.031 µg/mL (≈ 0.0766 µM)
- MIC E. coli MG1655 [2]: 4 µg/mL (≈ 9.89 µM)
- MIC K. pneumoniae BAA 2472 [5]: 8 µg/mL (≈ 19.8 µM)
- MIC K. pneumoniae AR 0113 [6]: 8 µg/mL (≈ 19.8 µM)
- MIC E. coli AR 0085 [7]: 4 µg/mL (≈ 9.89 µM)
- MIC K. pneumoniae AR 0066 [8]: 8 µg/mL (≈ 19.8 µM)
- MIC A. baumannii AR 0033 [9]: 4 µg/mL (≈ 9.89 µM)
- MIC A. baumannii AR 0313 [10]: 8 µg/mL (≈ 19.8 µM)
- MIC K. pneumoniae AR 0560 [11]: 8 µg/mL (≈ 19.8 µM)
- MIC E. coli AR 0048 [12]: 4 µg/mL (≈ 9.89 µM)
- MIC A. baumannii AR 0273 [13]: 8 µg/mL (≈ 19.8 µM)
- MIC A. baumannii AR 0299 [14]: 4 µg/mL (≈ 9.89 µM)
- MIC S. aureus 29213 [15]: 0.016 µg/mL (≈ 0.0396 µM)
- concentration at which all strains of the clinical isolate challenge panel are inhibited [18]: ≤ 8 µg/mL

Molecule: Cc1c(CN(C)C(=O)/C=C/c2ccc3c(c2)CCC(N)C(=O)N3)oc2ccccc12 (stereo not drawn)
- IMR90 % Cell Death ([3]; 30 μM): 8 ± 3%
- IMR90 % Cell Death ([3]; 100 μM): 67 ± 2%
- Hep G2 % Cell Death ([4]; 30 μM): 12 ± 5%
- Hep G2 % Cell Death ([4]; 100 μM): 58 ± 10%

Source: patent publication US20240190872A1, “FABI INHIBITORS FOR GRAM-NEGATIVE PATHOGENS” (THE BOARD OF TRUSTEES OF THE UNIVERSITY OF ILLINOIS, priority 2021, published 2024)
